Where two headings read alike, the source gives them in different places.
Key:
[1] = tested on: 4 xenografts overexpressing TUBB3 (DU4475, PAT21, H1155, LX-1); test: In vivo efficacy across the 4 human tumor xenografts overexpressing TUBB3; settings: range across 4 TUBB3 overexpressing xenografts in nude mice, at MTD
Protocol: (§1) Cancer cell lines overexpressing TUBB3 were evaluated in vivo in mice for sensitivity to ixabepilone, docetaxel and vinorelbine. These include DU4475 and PAT21 breast, as well as H1155 and LX-1 lung cancer lines. BCRP overexpressing HEK-293 cell line was studied in vitro for sensitivity to ixabepilone, paclitaxel and mitoxantrone.
(§2) In vivo efficacy of ixabepilone was evaluated in TUBB3 overexpressing human breast (DU4475 and PAT21) and lung (H1155 and LX-1) tumor xenograft models • Tumor response was determined by measurement of tumors by caliper twice a week • Tumor weights were estimated using the formula
(§3) Tumor weight=(length×width2)/2 • Tumor response endpoint was expressed in terms of log cell kill (LCK) expressed as
(§4) LCK=(T−C)÷(3.32×TVDT) • T−C, the difference in the time (days) required for the treated tumors (T) to reach a predetermined target size compared with those of the control group (C)
(§5) Tumor volume doubling time=TVDT: Median time (days) for control tumors to reach target size−Median time (days) for control tumors to reach half the target size • Activity was defined as achievement of LCK≧1 • MTD—the dose level immediately above which excessive toxicity (i.e., more then one death) occurred • Statistical evaluations were performed using Gehan's generalized Wilcoxon test

[2] = tested on: H1155 lung tumor xenograft overexpressing TUBB3; test: In vivo efficacy in TUBB3 overexpressing H1155 lung tumor xenograft; set-up: species or system human; settings: H1155 xenograft in nude mice, at maximum tolerated dose; activity = LCK>=1
Protocol: as §1, §2, §3, §4, §5

[3] = tested on: LX-1 lung tumor xenograft overexpressing TUBB3; test: In vivo efficacy in TUBB3 overexpressing LX-1 lung tumor xenograft; set-up: species or system human; settings: LX-1 xenograft in nude mice, at maximum tolerated dose; activity = LCK>=1
Protocol: as §1, §2, §3, §4, §5

[4] = tested on: Pat-21 breast tumor xenograft overexpressing TUBB3; test: In vivo efficacy in TUBB3 overexpressing PAT21 breast tumor xenograft; set-up: species or system human; settings: Pat-21 xenograft in nude mice, at maximum tolerated dose; activity = LCK>=1
Protocol: as §1, §2, §3, §4, §5

[5] = tested on: DU4475 breast tumor xenograft overexpressing TUBB3; test: In vivo efficacy in TUBB3 overexpressing DU4475 breast tumor xenograft; set-up: species or system human; settings: DU4475 xenograft in nude mice, at maximum tolerated dose; activity = LCK>=1
Protocol: as §1, §2, §3, §4, §5

BCRP = test: Cell growth assay in BCRP overexpressing HEK293 cells; format: cell-based; settings: human, HEK293 cells overexpressing BCRP (HEK293/BCRP); HEK293/BCRP cells, cell growth by cell counting
Protocol: as §1
(§6) Compounds and reagents. Ixabepilone, docetaxel and mitoxantrone were solubilized in 100% DMSO at 10 mg/ml for in vitro studies.
(§7) Cell culture: HEK and HEK/BCRP cells were maintained in RPMI-1640 (Gibco) supplemented with 10% heat-inactivated fetal bovine serum and 25 mM HEPES at 37° C./5% CO2.
(§8) Cell growth assays. Cell growth assays were conducted in 6-well culture plates. Cells were plated at a density of 4×10^4 cells/well overnight. Compounds were then added (total DMSO content not exceeding 0.1%). Cell growth was determined by the direct counting of cell number, following trypsinization, using a Coulter Channelyzer.

[6] = tested on: BCRP overexpressing HEK293/BCRP cell line; test: as above; format: cell-based
Protocol: as §1, §6, §7, §8

[7] = tested on: paclitaxel-sensitive (A2780, HCT116, LS174T) and paclitaxel-resistant (HCT116/VM46, Pat-7, A2780Tax, Pat-21) human tumor models; test: Preclinical pharmacology studies of antitumor activity in human tumor models; format: in vivo
[8] = tested on: human lung carcinoma cell line, H441; test: BCRP-overexpression dependent resistance in H441 cells; format: cell-based; settings: FIG. 8
[9] = tested on: BCRP overexpressing cells; test: Detection of BCRP overexpressing cells by Hoescht 33342 dye and flow cytometry; format: cell-based; settings: flow cytometry, FIG. 7
Source text: Determination of BCRP Expression by Flow Cytometry.
Cells were acquired using CellQuest Pro on a FACSCalibur (BD) and analyzed using FlowJo software.

[10] = HEK293/BCRP in comparison with the vector-transfected control line

SMILES | antitumor efficacy, range over the 4 xenografts [1] | Antitumor Efficacy (LCK) [2] [LCK] | Antitumor Efficacy (LCK) [3] [LCK] | Antitumor Efficacy (LCK) [4] [LCK] | Antitumor Efficacy (LCK) [5] [LCK] | IC50 (BCRP) [nM] | resistance factor [6, 10] [fold] | further results
CC(=O)O[C@@]12CO[C@@H]1C[C@H](O)[C@@]1(C)C(=O)[C@H](O)C3=C(C)[C@@H](OC(=O)[C@H](O)[C@@H](NC(=O)OC(C)(C)C)c4ccccc4)C[C@@](O)([C@@H](OC(=O)c4ccccc4)[C@H]21)C3(C)C [Docetaxel, docetaxel] | 0.2-0.9 LCK | 0.2 | 0.5 | 0.3 | 0.9 | – | – | –
C/C(=C\c1csc(C)n1)[C@@H]1C[C@@H]2O[C@]2(C)CCC[C@H](C)[C@H](O)[C@@H](C)C(=O)C(C)(C)[C@@H](O)CC(=O)N1 [Ixabepilone, (1S,3S,7S,10R,11S,12S,16R)-7,11-dihydroxy-8,8,10,12,16-pentamethyl-3-[(1E)-1-methyl-2-(2-methyl-4-thiazolyl)ethenyl]-17-oxa-4-azabicyclo[14.1.0]heptadecane-5,9-dione] | – | 4.2 | 2.6 | 1.6 | 2.6 | 4.1 | – | resistance factor [6]: 1.9 fold; oral efficacy ([7]; oral administration, comparable to parenteral administration): orally efficacious; antitumor activity ([7]; paclitaxel-sensitive and paclitaxel-resistant human colon, ovarian and breast tumor models): very impressive and broad spectrum of antitumor activity; ability to overcome BCRP-overexpression dependent resistance to taxanes [8]: increased ability
CCC1=C[C@@H]2CN(C1)Cc1c([nH]c3ccccc13)[C@@](C(=O)OC)(c1cc3c(cc1OC)N(C)[C@H]1[C@@](O)(C(=O)OC)[C@H](OC(C)=O)[C@]4(CC)C=CCN5CC[C@]31[C@@H]54)C2 [Vinorelbine, vinorelbine] | 0.1-0.3 LCK | 0.1 | 0.1 | 0.3 | 0.2 | – | – | –
COc1ccc2c3c([nH]c2c1)[C@H](C=C(C)C)N1C(=O)[C@@H]2CCCN2C(=O)[C@@H]1C3 [fumitremorgin C] | – | – | – | – | – | – | – | effect on BCRP overexpressing cells detected with Hoescht 33342 dye [9]: abolition of BCRP overexpressing cells; reversal of BCRP-mediated resistance to paclitaxel and mitoxantrone ([6]; HEK293/BCRP cells): reversed
O=C1c2c(O)ccc(O)c2C(=O)c2c(NCCNCCO)ccc(NCCNCCO)c21 [mitoxantrone] | – | – | – | – | – | 26.4 | 4.1 | –
CC(=O)O[C@H]1C(=O)[C@@]2(C)[C@H]([C@H](OC(=O)c3ccccc3)[C@]3(O)C[C@H](OC(=O)[C@H](O)[C@@H](NC(=O)c4ccccc4)c4ccccc4)C(C)=C1C3(C)C)[C@]1(OC(C)=O)CO[C@@H]1C[C@@H]2O [paclitaxel] | – | – | – | – | – | 8.7 | 9.8 | –
